≈ marks a conversion by molar mass, not a printed value.
Test system: MRSA-2 (methicillin-resistant Staphylococcus aureus clinical isolate)
Test: MIC assay (broth microdilution, CLSI)
Format: cell-based
Conditions: Staphylococcus aureus, MRSA, Table 7; a midpoint of 2-fold range; b lowest concentration tested; read-out: MIC, MRSA-2

SMILES	MIC
Oc1c(I)cc(I)c2nc3ccccc3nc12 [Compound 4, 2,4,-Diiodo-1-hydroxyphenazine]	3.13 µM (≈ 1.4 µg/mL)
C=CCc1cc(Br)c2nc3cc(Br)c(Br)cc3nc2c1O [Compound 24, 2-Allyl-4,7,8-tribromo-1-hydroxyphenazine]	> 100 µM

Same assay, conditions: Table 2A; read-out: MIC, MRSA-2

SMILES	MIC
Oc1c(I)cc(I)c2nc3ccccc3nc12 [Compound 4, 2,4,-Diiodo-1-hydroxyphenazine]	3.13 µM (≈ 1.4 µg/mL)

Test system: MRSA-1 (methicillin-resistant Staphylococcus aureus clinical isolate)
Test: MIC assay (broth microdilution, CLSI)
Format: cell-based
Conditions: Table 2A

SMILES	MIC, MRSA-1
Oc1c(I)cc(I)c2nc3ccccc3nc12 [Compound 4, 2,4,-Diiodo-1-hydroxyphenazine]	0.78 to 1.56 µM

Test system: Staphylococcus epidermidis (ATCC 12228)
Test: MIC assay (broth microdilution, CLSI)
Format: cell-based
Conditions: Staphylococcus epidermidis, ATCC12228; Table 2A; read-out: MIC, Staphylococcus epidermidis (ATCC 12228)

SMILES	MIC
Oc1c(Cl)cc(Br)c2nc3ccccc3nc12 [Compound 5, 4-Bromo-2-chloro-1-hydroxyphenazine]	3.13 µM (≈ 0.969 µg/mL)

Same assay, conditions: Staphylococcus epidermidis, ATCC12228; Table 7; b lowest concentration tested; read-out: MIC, S. epidermidis 12228

SMILES	MIC
Oc1c(I)cc(I)c2nc3ccccc3nc12 [Compound 4, 2,4,-Diiodo-1-hydroxyphenazine]	1.56 µM (≈ 0.699 µg/mL)
Oc1c(Cl)cc(Br)c2nc3ccccc3nc12 [Compound 5, 4-Bromo-2-chloro-1-hydroxyphenazine]	3.13 µM (≈ 0.969 µg/mL)
C=CCc1cc(Br)c2nc3cc(Br)c(Br)cc3nc2c1O [Compound 24, 2-Allyl-4,7,8-tribromo-1-hydroxyphenazine]	> 100 µM

Same assay, conditions: Table 2A; read-out: MIC, Staphylococcus epidermidis (ATCC 12228)

SMILES	MIC
Oc1c(I)cc(I)c2nc3ccccc3nc12 [Compound 4, 2,4,-Diiodo-1-hydroxyphenazine]	1.56 µM (≈ 0.699 µg/mL)

Test system: Staphylococcus epidermidis (ATCC 35984), MRSE
Test: MIC assay (broth microdilution, CLSI)
Format: cell-based
Conditions: Staphylococcus epidermidis, Table 7; read-out: MIC, MRSE 35984

SMILES	MIC
Oc1c(I)cc(I)c2nc3ccccc3nc12 [Compound 4, 2,4,-Diiodo-1-hydroxyphenazine]	1.17 µM (≈ 0.524 µg/mL)

Same assay, conditions: Table 2A

SMILES	MIC, Staphylococcus epidermidis (ATCC 35984)
Oc1c(I)cc(I)c2nc3ccccc3nc12 [Compound 4, 2,4,-Diiodo-1-hydroxyphenazine]	0.78 to 1.56 µM

Test system: Enterococcus faecium (ATCC 700221), VRE
Test: MIC assay (broth microdilution, CLSI)
Format: cell-based
Conditions: Enterococcus faecium, Table 2A; read-out: MIC, Enterococcus faecium (ATCC 700221)

SMILES	MIC
Oc1c(Cl)cc(Br)c2nc3ccccc3nc12 [Compound 5, 4-Bromo-2-chloro-1-hydroxyphenazine]	6.25 µM (≈ 1.93 µg/mL)
Oc1c(I)cc(Br)c2nc3ccccc3nc12 [Compound 10, 4-Bromo-2-iodo-1-hydroxyphenazine]	6.25 µM (≈ 2.51 µg/mL)

Same assay, conditions: Table 2A; read-out: MIC, Enterococcus faecium (ATCC 700221)

SMILES	MIC
Oc1c(I)cc(I)c2nc3ccccc3nc12 [Compound 4, 2,4,-Diiodo-1-hydroxyphenazine]	6.25 µM (≈ 2.8 µg/mL)

Same assay, conditions: Table 7; b lowest concentration tested; read-out: MIC, VRE 700221

SMILES	MIC
Oc1c(I)cc(I)c2nc3ccccc3nc12 [Compound 4, 2,4,-Diiodo-1-hydroxyphenazine]	6.25 µM (≈ 2.8 µg/mL)
Oc1c(Cl)cc(Br)c2nc3ccccc3nc12 [Compound 5, 4-Bromo-2-chloro-1-hydroxyphenazine]	6.25 µM (≈ 1.93 µg/mL)
Oc1c(I)cc(Br)c2nc3ccccc3nc12 [Compound 10, 4-Bromo-2-iodo-1-hydroxyphenazine]	6.25 µM (≈ 2.51 µg/mL)
C=CCc1cc(Br)c2nc3cc(Br)c(Br)cc3nc2c1O [Compound 24, 2-Allyl-4,7,8-tribromo-1-hydroxyphenazine]	> 100 µM

Test system: not listed separately
Test: in vitro
Format: cell-based
Conditions: human
Experimental: (§1) The cytotoxicities of select compounds of the invention against HeLa cells were determined. HeLa cytotoxicity was assessed using the LDH release assay described by CYTOTOX96 (Promega G1780). HeLa cells were grown in Dulbecco's Modified Eagle Medium (DMEM; Gibco) supplemented with 10% Fetal Bovine Serum (FBS) at 37° C. with 5% CO2. […] Triton X-100 (at 2% v/v) was used as the positive control for maximum lactate dehydrogenate (LDH) activity in this assay (e.g., complete cell death), while “medium only” lanes served as negative control lanes (e.g., no cell death). DMSO was used as the vehicle control. […] Finally, Stop Solution (50 μL) was added to the incubating plates, and the absorbance was measured at 490 nm.
(§2) HeLa cytotoxicity was assessed using the LDH release assay described by CYTOTOX96 (Promega G1780). HeLa cells were grown in Dulbecco's Modified Eagle Medium (DMEM; Gibco) supplemented with 10% Fetal Bovine Serum (FBS) at 37° C. with 5% CO2. […] Triton X-100 (at 2% v/v) was used as the positive control for maximum lactate dehydrogenate (LDH) activity in this assay (e.g., complete cell death), while “medium only” lanes served as negative control lanes (e.g., no cell death). DMSO was used as our vehicle control. […] Finally, Stop Solution (50 μL) was added to the incubating plates and the absorbance was measured at 490 nm. Results are from three independent experiments (FIG. 19)

SMILES	IC50 at 24 h
Oc1c(I)cc(I)c2nc3ccccc3nc12 [Compound 4, 2,4,-Diiodo-1-hydroxyphenazine]	> 100 µM
Oc1c(Cl)cc(Br)c2nc3ccccc3nc12 [Compound 5, 4-Bromo-2-chloro-1-hydroxyphenazine]	> 100 µM

Test system: HeLa cells
Test: in vitro
Format: cell-based
Conditions: not given
Experimental: as §1, §2

SMILES	IC50
Oc1c(I)cc(I)c2nc3ccccc3nc12 [Compound 4, 2,4,-Diiodo-1-hydroxyphenazine]	> 100 µM

Same assay, conditions: human, 24 h

SMILES	IC50
Oc1c(Cl)cc(Br)c2nc3ccccc3nc12 [Compound 5, 4-Bromo-2-chloro-1-hydroxyphenazine]	> 100 µM

Test system: human red blood cells
Test: Hemolysis assay with red blood cells
Conditions: not given
Experimental: The hemolysis activities of select compounds of the invention were determined. […] The washing was repeated three times with the buffer. In 96-well plate, test compounds were added to the buffer from DMSO stocks. […] The plate was then incubated for 1 hour at 37° C. After incubation, the plate was centrifuged for 5 minutes at 3,500 rpm. Then 80 μL of the supernatant was transferred to another 96-well plate, and the optical density (OD) was read at 405 nm. DMSO served as the negative control (0% hemolysis), while Triton X served as the positive control (100% hemolysis). The percent of hemolysis was calculated as (OD405 of the compound−OD405 of DMSO)/(OD405 of Triton X−OD405 of the buffer).
The washing was repeated three times with the buffer. In 96-well plate, test compounds were added to the buffer from DMSO stocks. […] The plate was then incubated for 1 hour at 37° C. After incubation, the plate was centrifuged for 5 minutes at 3,500 rpm. Then 80 μL of the supernatant was transferred to another 96-well plate and the optical density (OD) was read at 405 nm. DMSO served as our negative control (0% hemolysis) while Triton X served as our positive control (100% hemolysis). The percent of hemolysis was calculated as (OD405 of the test compound−OD405 DMSO)/(OD405 Triton X−OD405 buffer) from three independent experiments.

SMILES	% Hemolysis (200 μM)
Oc1c(I)cc(I)c2nc3ccccc3nc12 [Compound 4, 2,4,-Diiodo-1-hydroxyphenazine]	≤1%

Same assay, conditions: human, 1 h, 200 μM, pH 7.2

SMILES	% Hemolysis at 200 μM	% Hemolysis (200 μM)
Oc1c(I)cc(I)c2nc3ccccc3nc12 [Compound 4, 2,4,-Diiodo-1-hydroxyphenazine]	≤1%	–
Oc1c(Cl)cc(Br)c2nc3ccccc3nc12 [Compound 5, 4-Bromo-2-chloro-1-hydroxyphenazine]	≤1%	≤1%
Oc1c(I)cc(Br)c2nc3ccccc3nc12 [Compound 10, 4-Bromo-2-iodo-1-hydroxyphenazine]	1.3%	1.3%

Test system: MRSA-2 planktonic cells and biofilms
Test: Calgary Biofilm Device (CBD) assay, MBC/MBEC
Format: cell-based, Staphylococcus aureus
Conditions: Staphylococcus aureus, MRSA, Table 4; read-out: MBC, MRSA-2

SMILES	MBC
Oc1c(Cl)cc(Br)c2nc3ccccc3nc12 [Compound 5, 4-Bromo-2-chloro-1-hydroxyphenazine]	62.5 µM (≈ 19.3 µg/mL)
Oc1c(I)cc(Br)c2nc3ccccc3nc12 [Compound 10, 4-Bromo-2-iodo-1-hydroxyphenazine]	46.9 µM (≈ 18.8 µg/mL)

Same assay, conditions: Staphylococcus aureus, MRSA, Table 8; a/b 2-/4-fold range in independent experiments; read-out: MRSA-2 MBC

SMILES	MBC
Oc1c(I)cc(I)c2nc3ccccc3nc12 [Compound 4, 2,4,-Diiodo-1-hydroxyphenazine]	31.3 µM (≈ 14 µg/mL)
Oc1c(Cl)cc(Br)c2nc3ccccc3nc12 [Compound 5, 4-Bromo-2-chloro-1-hydroxyphenazine]	62.5 µM (≈ 19.3 µg/mL)
Oc1c(I)cc(Br)c2nc3ccccc3nc12 [Compound 10, 4-Bromo-2-iodo-1-hydroxyphenazine]	46.9 µM (≈ 18.8 µg/mL)

Same assay, conditions: Table 4

SMILES	MBEC, MRSA-2	MBEC:MBC ratio, MRSA-2
Oc1c(I)cc(I)c2nc3ccccc3nc12 [Compound 4, 2,4,-Diiodo-1-hydroxyphenazine]	93.8 µM	3.0

Same assay, conditions: Table 4; read-out: MBC, MRSA-2

SMILES	MBC
Oc1c(I)cc(I)c2nc3ccccc3nc12 [Compound 4, 2,4,-Diiodo-1-hydroxyphenazine]	31.3 µM (≈ 14 µg/mL)

Test system: MRSE (S. epidermidis ATCC 35984) planktonic cells and biofilms
Test: Calgary Biofilm Device (CBD) assay, MBC/MBEC
Format: cell-based, Staphylococcus epidermidis
Conditions: Staphylococcus epidermidis; Table 8; read-out: MRSE 35984 MBC

SMILES	MBC
Oc1c(I)cc(I)c2nc3ccccc3nc12 [Compound 4, 2,4,-Diiodo-1-hydroxyphenazine]	31.3 µM (≈ 14 µg/mL)
Oc1c(Cl)cc(Br)c2nc3ccccc3nc12 [Compound 5, 4-Bromo-2-chloro-1-hydroxyphenazine]	31.3 µM (≈ 9.69 µg/mL)

Test system: VRE (E. faecium ATCC 700221) planktonic cells and biofilms
Test: Calgary Biofilm Device (CBD) assay, MBC/MBEC
Format: cell-based, Enterococcus faecium
Conditions: Enterococcus; Table 8; c lowest concentration tested; read-out: VRE 700221 MBC

SMILES	MBC
Oc1c(I)cc(I)c2nc3ccccc3nc12 [Compound 4, 2,4,-Diiodo-1-hydroxyphenazine]	23.5 µM (≈ 10.5 µg/mL)
Oc1c(Cl)cc(Br)c2nc3ccccc3nc12 [Compound 5, 4-Bromo-2-chloro-1-hydroxyphenazine]	11.7 µM (≈ 3.62 µg/mL)

Test system: not given
Test: not given
Conditions: not given

SMILES	melting point
Oc1c(Cl)cc(Br)c2nc3ccccc3nc12 [Compound 5, 4-Bromo-2-chloro-1-hydroxyphenazine]	229 to 231 °C
Oc1c(I)cc(Br)c2nc3ccccc3nc12 [Compound 10, 4-Bromo-2-iodo-1-hydroxyphenazine]	188 to 190 °C
C=CCc1cc(Br)c2nc3cc(Br)c(Br)cc3nc2c1O [Compound 24, 2-Allyl-4,7,8-tribromo-1-hydroxyphenazine]	187 to 189 °C

Test system: MRSA BAA-1707
Test: MIC assay (broth microdilution, CLSI)
Conditions: Staphylococcus aureus, read-out: MIC, MRSA BAA-1707

SMILES	MIC
Oc1c(I)cc(I)c2nc3ccccc3nc12 [Compound 4, 2,4,-Diiodo-1-hydroxyphenazine]	3.13 µM (≈ 1.4 µg/mL)

Test system: MRSA BAA-44
Test: MIC assay (broth microdilution, CLSI)
Conditions: Staphylococcus aureus, read-out: MIC, MRSA BAA-44

SMILES	MIC
Oc1c(I)cc(I)c2nc3ccccc3nc12 [Compound 4, 2,4,-Diiodo-1-hydroxyphenazine]	3.13 µM (≈ 1.4 µg/mL)
Oc1c(Cl)cc(Br)c2nc3ccccc3nc12 [Compound 5, 4-Bromo-2-chloro-1-hydroxyphenazine]	3.13 µM (≈ 0.969 µg/mL)

Reference: patent US20180312473A1, “PHENAZINE DERIVATIVES AS ANTIMICROBIAL AGENTS” (priority 2015, published 2018)
